The conditions of data set [1]: in vivo.
The conditions of data set [2]: description of the substance; cited from earlier work.
The next data set is described as follows: clinical. As to conditions: human, in vivo.

Like-named read-outs stand apart in the source and are kept apart here.

For the compound `CC1(C)O[C@@H]2C[C@H]3[C@@H]4C[C@H](F)C5=CC(=O)C=C[C@]5(C)[C@@]4(F)[C@@H](O)C[C@]3(C)[C@]2(C(=O)CO)O1` [fluocinolone acetonide, (6,11,16)-6,9-difluoro-11,21-dihydroxy-16,17-[(1-methylethylidene)bis(oxy)]-pregna-1,-4-diene-3,20-dione], in data set [1], the “Percutaneous absorption of unchanged drug into the systemic circulation” value is recorded as “minimal” and the Post-dose plasma concentrations entry is given as “undetectably low”. Moreover, the “Stability of the drug substance (light, air, moisture)” value (“Stability of the drug substance” below) in data set [2] was “stable in light”.
As usually defined, the Cmax is the highest concentration seen after dosing. In the case of `CC1=C(/C=C/C(C)=C/C=C/C(C)=C/C(=O)O)C(C)(C)CCC1` [tretinoin, (all-E)-3,7-dimethyl-9-(2,6,6-trimethyl-l-cyclohexen-1-yl)-2,4,6,8-nonatetraenoic acid], the peak concentration (Cmax) in “clinical” lay within 2.01 to 5.34 ng/mL; in data set [1] (human), 2.0 to 4.99 ng/mL. The “Percutaneous absorption of unchanged drug into the systemic circulation” value in data set [1] is “minimal”. Also, the “Stability of the drug substance” value in data set [2] was “highly reactive to light and moisture”.
`Oc1ccc(O)cc1` [hydroquinone, 1,4-benzenediol] displayed a Cmax in “clinical” of 25.6 to 86.5 ng/mL. In data set [1] (human, 8 weeks), the “Number of subjects with quantifiable plasma concentrations” value came to 8 and the “Subjects with quantifiable plasma concentrations” value stood at 18%. For the same compound, in data set [1], the “Percutaneous absorption of unchanged drug into the systemic circulation” value is “minimal” and the Post-dose plasma concentrations result is “undetectably low”. Besides, the “Stability of the drug substance” value in data set [2] is on record as “darken on exposure to air”.

These data come from US20060099173A1, “Topical skin care composition” (priority 2003, published 2006).
